Data on five compounds can be found in publication PMC9945182 (Chemical Research in Toxicology, 2023).

One data set deals with T1, CYP2B6 (Homo sapiens, UniProt P20813).
T1 sequence (P20813 1-491): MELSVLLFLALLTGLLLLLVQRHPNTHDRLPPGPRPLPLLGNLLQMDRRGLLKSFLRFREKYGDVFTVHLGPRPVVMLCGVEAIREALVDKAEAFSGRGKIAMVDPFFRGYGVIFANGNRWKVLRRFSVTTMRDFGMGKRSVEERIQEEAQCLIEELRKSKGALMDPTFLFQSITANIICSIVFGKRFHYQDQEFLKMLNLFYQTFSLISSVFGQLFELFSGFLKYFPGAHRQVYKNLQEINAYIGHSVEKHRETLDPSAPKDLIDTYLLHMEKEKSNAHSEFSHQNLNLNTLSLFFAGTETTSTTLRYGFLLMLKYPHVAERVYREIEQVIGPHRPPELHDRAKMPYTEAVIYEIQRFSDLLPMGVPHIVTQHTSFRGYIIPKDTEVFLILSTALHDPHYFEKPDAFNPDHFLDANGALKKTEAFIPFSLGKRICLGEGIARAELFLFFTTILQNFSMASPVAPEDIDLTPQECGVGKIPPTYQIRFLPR
Format: biochemical. The following applies: human, microsomes from CYP2B6-overexpressing HEK293 cells, pH 7.4, probe nicotine (cotinine formation).

The next data set addresses T2, UGT2B7 (Homo sapiens, UniProt P16662).
T2 sequence (P16662 24-529): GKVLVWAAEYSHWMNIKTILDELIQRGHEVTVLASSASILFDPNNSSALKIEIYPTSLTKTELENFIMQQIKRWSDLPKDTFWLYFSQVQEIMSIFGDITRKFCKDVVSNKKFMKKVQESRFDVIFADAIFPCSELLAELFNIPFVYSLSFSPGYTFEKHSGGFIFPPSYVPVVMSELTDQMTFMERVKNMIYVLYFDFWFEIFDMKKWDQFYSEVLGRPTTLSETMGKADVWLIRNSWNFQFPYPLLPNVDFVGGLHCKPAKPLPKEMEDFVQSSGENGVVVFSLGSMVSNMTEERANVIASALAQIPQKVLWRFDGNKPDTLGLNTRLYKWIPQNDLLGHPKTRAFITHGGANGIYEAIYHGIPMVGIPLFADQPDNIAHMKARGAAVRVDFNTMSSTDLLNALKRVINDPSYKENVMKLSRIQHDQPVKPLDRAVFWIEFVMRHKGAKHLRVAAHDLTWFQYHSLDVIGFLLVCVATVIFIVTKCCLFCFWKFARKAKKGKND
Format: biochemical. The following applies: human, microsomes from UGT2B7-overexpressing HEK293 cells, pH 7.4, probe 3HC (30 mM), 3HC-Gluc formation.

The next data set has as its target T3, UGT2B17 (Homo sapiens, UniProt O75795).
T3 sequence (O75795 24-530): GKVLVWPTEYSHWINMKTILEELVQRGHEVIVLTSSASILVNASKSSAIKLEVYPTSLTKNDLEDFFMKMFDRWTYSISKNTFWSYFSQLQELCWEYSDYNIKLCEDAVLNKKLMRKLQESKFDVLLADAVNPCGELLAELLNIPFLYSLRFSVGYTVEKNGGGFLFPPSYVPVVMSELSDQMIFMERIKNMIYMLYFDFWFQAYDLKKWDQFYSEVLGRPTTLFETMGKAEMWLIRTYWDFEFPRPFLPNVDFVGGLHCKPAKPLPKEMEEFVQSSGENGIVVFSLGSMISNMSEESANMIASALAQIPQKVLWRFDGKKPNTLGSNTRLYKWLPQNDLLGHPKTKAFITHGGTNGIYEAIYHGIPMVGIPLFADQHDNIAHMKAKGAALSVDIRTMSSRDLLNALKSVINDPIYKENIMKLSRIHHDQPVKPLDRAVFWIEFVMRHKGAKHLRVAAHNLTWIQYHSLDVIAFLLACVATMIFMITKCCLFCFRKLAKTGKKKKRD
Format: biochemical. The following applies: human, microsomes from UGT2B17-overexpressing HEK293 cells, pH 7.4, probe 3HC (30 mM), 3HC-Gluc formation.

The target of data set [1] is T4, CYP2A6 (Homo sapiens, UniProt P11509).
T4 sequence (P11509 1-494): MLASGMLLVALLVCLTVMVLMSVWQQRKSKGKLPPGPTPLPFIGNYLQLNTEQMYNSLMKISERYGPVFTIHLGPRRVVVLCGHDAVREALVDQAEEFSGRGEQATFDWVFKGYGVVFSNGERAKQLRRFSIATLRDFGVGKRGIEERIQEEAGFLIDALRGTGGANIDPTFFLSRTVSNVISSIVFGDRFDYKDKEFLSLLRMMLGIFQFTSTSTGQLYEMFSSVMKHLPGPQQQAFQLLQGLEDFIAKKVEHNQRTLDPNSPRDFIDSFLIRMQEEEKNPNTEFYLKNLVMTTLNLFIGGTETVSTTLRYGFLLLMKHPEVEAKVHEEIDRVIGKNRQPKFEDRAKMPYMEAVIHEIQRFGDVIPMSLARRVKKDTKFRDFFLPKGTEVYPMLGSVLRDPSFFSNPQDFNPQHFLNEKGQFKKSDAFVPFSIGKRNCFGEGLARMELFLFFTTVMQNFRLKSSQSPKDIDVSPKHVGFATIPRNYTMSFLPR
Format: biochemical. The following applies: 10 μM inhibitor; nicotine substrate; CYP2A6 microsomes; vs 100% activity control.

The target in data set [2] is T4, CYP2A6. Format: biochemical. The following applies: 10 μM inhibitor; nicotine substrate; CYP2A6 microsomes.
The subject of data set [3] is CYP2A6. As to conditions: cited from earlier work.
The conditions of data set [4]: majority of tobacco users; cited from earlier work.

Broadly, the inhibition is how much of the control response was suppressed. Take `COC(=O)[C@H](c1ccccc1Cl)N1CCc2sccc2C1` [clopidogrel]: on CYP2B6, the inhibition at 30 min, 50 µM came to 60%.

For `Cc1ccc(NC(=O)c2ccc(CN3CCN(C)CC3)cc2)cc1Nc1nccc(-c2cccnc2)n1` [imatinib], the inhibition at 200 µM at UGT2B7 and at UGT2B17 was at most 65% each time.

Take `N[C@@H]1C[C@H]1c1ccccc1` (racemic) [tranylcypromine]: the “inhibition of cotinine formation” value on CYP2A6 [1] was 70%. Also, the “inhibition of nornicotine formation” value on CYP2A6 [2] came to 95%.

One may read the Ki as the equilibrium dissociation constant of an inhibitor or competing ligand from its target. For `C#CCN(C)[C@H](C)Cc1ccccc1` [selegiline], the Ki in the data set on CYP2A6 [3] was 4.6 µM.

In the case of `CN1CCC[C@H]1c1cccnc1` [nicotine], the “fraction of nicotine metabolized to cotinine by CYP2A6” value in data set [4] is given as “greater than 70%”.
